The assay deals with T1, protein tyrosine phosphatase 1B (PTP1B) (Homo sapiens, UniProt P18031).
T1 construct: gene PTPN1; catalytic domain (Met1-Glu298) of PTP1B (ΔPTP1B)
T1 sequence (P18031 1-298): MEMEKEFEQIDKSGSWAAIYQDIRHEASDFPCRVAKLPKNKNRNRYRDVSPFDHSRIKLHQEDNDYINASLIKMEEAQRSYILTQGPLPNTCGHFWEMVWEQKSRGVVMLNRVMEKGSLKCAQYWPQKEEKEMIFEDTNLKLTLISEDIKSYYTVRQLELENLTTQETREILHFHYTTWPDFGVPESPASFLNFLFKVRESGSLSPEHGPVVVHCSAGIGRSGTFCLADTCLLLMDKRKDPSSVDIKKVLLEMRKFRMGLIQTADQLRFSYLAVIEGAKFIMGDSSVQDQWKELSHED
In words: p-NPP phosphatase assay with purified recombinant PTP1B catalytic domain, absorbance at […] nm. The assay is classed as biochemical.

Experimental findings from PMC11012793, “Mulberry Leaf Compounds and Gut Microbiota in Alzheimer’s Disease and Diabetes: A Study Using Network Pharmacology, Molecular Dynamics Simulation, and Cellular Assays” (International Journal of Molecular Sciences, 2024) are described below.

Regarding `O=c1c(O)c(-c2ccc(O)cc2)oc2cc(O)cc(O)c12` [kaempferol], the IC50 was 279 µM.

As usually defined, the IC50 is the concentration that gives 50% inhibition.
